Test results published in patent US7195788B2, “Pesticidal compositions from prunus” (Premier Botanicals, Ltd., priority 2001, dated 2007).
Several values for one entry are separate records, joined by “and”; a condition that tells them apart may be missing. Equal values may be shown once.

Legend:
[1] = test system: Cytospora chrysosperma; assay: In vitro mycelia growth of Cytospora chrysosperma on potato dextrose agar containing the test material; format: cell-based; conditions: 23° C.
Description: The effectiveness of Prunus compositions was compared to the effectiveness of synthetic benzaldehyde in stopping or restricting the growth of the Cytospora fungus on potato dextrose agar. The volatile compounds of a Prunus virginiana hydrodistillate were concentrated by counter-flow flash evaporation (i.e. collected from vessel 122 as shown in FIG. 2) to provide a concentrated extract that was further processed by distillation to remove hydrocyanic acid. The resulting extract was analyzed and found to contain 1.2% trans-2-hexenal, 98.5% benzaldehyde, and traces of other compounds originally in the hydrodistillate. This extract was reconstituted in distilled water to provide a solution containing approximately 10,000 ppm of Prunus volatiles. This stock solution was used to prepare a series of agar solutions containing between 0 and 10,000 ppm Prunus volatiles. The Prunus material was blended into the agar after autoclaving and prior to pouring the agar into Petri plates. […] All plates were inoculated with a 5-mm potato dextrose agar plug from a two-week-old culture of C. chrysosperma.

[2] = test system: Uncinula necator; assay: Powdery mildew development on 'Pinot Noir' grape leaves after spray treatment; format: in vivo; conditions: for Powdery mildew disease rating on grape leaves, per repetition: scale 1 = no symptoms, 5 = 100% infected, Prunus 1 crude, Prunus 2 and SB at 1000 ppm, repetitions 1-3
Description: Prunus compositions (including crude Prunus virginiana hydrodistillate, collected in vessel 112 of FIG. 2, having the analysis of the first entry of Table 1) were tested on grape plants (Pinot Noir) infected with powdery mildew. The experiment was set up in a complete randomized block design with three repetition, four treatments each, with three observations per treatment. Treatments were as follows: Prunus 1: crude hydrodistillate from Prunus biomass, Prunus 2: benzaldehyde separated from the hydrodistillate at 1,000 ppm, SB-synthetic benzaldehyde, and control-distilled water.
Treatments were applied to infected leaves in early August and in early September. Three adjacent leaves on a vine were sprayed with each treatment and replicated on three different vines (plants). The solutions were applied with a mist sprayer until run off. The first disease reading was obtained in early September, one month after the first treatment application. The second disease reading was obtained in early October, about one month after the second treatment application.
Disease ratings were based on a scale of 1 to 5, with 1 indicating no symptoms and 5 indicating 100-percent infected. The results are summarized in Table 5, in which each datum is a mean value of the three observations for each treatment made on the two dates disease readings were obtained. […] The crude hydrodistillate composition contained all of the volatile chemicals identified above in Example 1. The increased fungicidal action of the crude hydrodistillate indicated synergistic action of the Prunus volatiles relative to purified or synthetic benzaldehyde.

[3] = test system: Sphaerotheca pannosa; assay: Powdery mildew development on rose leaves after spray treatment; format: in vivo; conditions: for Powdery mildew disease rating on rose leaves, per repetition: scale 1 = no symptoms, 5 = 100% infection, Prunus 1 crude, Prunus 2 and SB at 1000 ppm, repetitions 1-3
Description: Prunus compositions (including crude Prunus virginiana hydrodistillate, collected in vessel 112 of FIG. 2, having the SPME determined composition of the first entry in Table 1) were tested on diseased plants and were evaluated as a fungicide for controlling Rose powdery mildew. The experiment was set up in a complete randomized block design with three repetitions and four treatments. Treatments were as follows: Prunus 1: crude hydrodistillate from Prunus biomass, Prunus 2: benzaldehyde separated from the crude hydrodistillate at 1,000 ppm, SB-synthetic benzaldehyde, and control-distilled water.
Treatments were applied to infected leaves twice (one week apart) in late July, and once in late August. All leaves were covered with mildew mycelia at the time of the first treatment. One compound leaf was treated with each treatment. Leaves from different stems were treated for each of the three repetition. The treatments were applied with a mist sprayer until run off. Disease development was rated on a scale of 1 to 5, where 1 indicated no symptoms and 5 indicated 100-percent infected. The first disease rating was obtained at the time of the late August treatment, followed by a second disease rating in early September. […] The crude distillate from the Prunus biomass was effective in eliminating or inhibiting the growth of the fungus on the rose leaves. […] The crude hydrodistillate containing all of the volatile compounds identified in Example 1 appeared to act synergistically, relative to purified or synthetic benzaldehyde, to control the rose mildew fungus.

## O=Cc1ccccc1 [SB, benzaldehyde]
[1]; 25 ppm in PDA, 1 day after treatment
  Mycelial Growth (radial): 0.0 cm
[1]; 25 ppm in PDA, 2 days after treatment
  Mycelial Growth (radial): 1.2 cm
[1]; 25 ppm in PDA, 3 days after treatment
  Mycelial Growth (radial): 2.8 cm
[1]; 25 ppm in PDA, 4 days after treatment
  Mycelial Growth (radial): 3.8 cm
[1]; 25 ppm in PDA, 5 days after treatment
  Mycelial Growth (radial): 4.1 cm
[1]; 25 ppm in PDA, 6 days after treatment
  Mycelial Growth (radial): 4.1 cm
[1]; 25 ppm in PDA, 7 days after treatment
  Mycelial Growth (radial): 4.1 cm
[1]; 25 ppm in PDA, 14 days after treatment
  Mycelial Growth (radial): 4.1 cm
[1]; 50 ppm in PDA, 1 day after treatment
  Mycelial Growth (radial): 0.0 cm
[1]; 50 ppm in PDA, 2 days after treatment
  Mycelial Growth (radial): 1.1 cm
[1]; 50 ppm in PDA, 3 days after treatment
  Mycelial Growth (radial): 2.6 cm
[1]; 50 ppm in PDA, 4 days after treatment
  Mycelial Growth (radial): 3.1 cm
[1]; 50 ppm in PDA, 5 days after treatment
  Mycelial Growth (radial): 4.0 cm
[1]; 50 ppm in PDA, 6 days after treatment
  Mycelial Growth (radial): 4.1 cm
[1]; 50 ppm in PDA, 7 days after treatment
  Mycelial Growth (radial): 4.1 cm
[1]; 50 ppm in PDA, 14 days after treatment
  Mycelial Growth (radial): 4.1 cm
[1]; 100 ppm in PDA, 1 day after treatment
  Mycelial Growth (radial): 0.0 cm
[1]; 100 ppm in PDA, 2 days after treatment
  Mycelial Growth (radial): 1.2 cm
[1]; 100 ppm in PDA, 3 days after treatment
  Mycelial Growth (radial): 2.7 cm
[1]; 100 ppm in PDA, 4 days after treatment
  Mycelial Growth (radial): 3.5 cm
[1]; 100 ppm in PDA, 5 days after treatment
  Mycelial Growth (radial): 4.1 cm
[1]; 100 ppm in PDA, 6 days after treatment
  Mycelial Growth (radial): 4.1 cm
[1]; 100 ppm in PDA, 7 days after treatment
  Mycelial Growth (radial): 4.1 cm
[1]; 100 ppm in PDA, 14 days after treatment
  Mycelial Growth (radial): 4.1 cm
[1]; 500 ppm in PDA, 1 day after treatment
  Mycelial Growth (radial): 0.0 cm
[1]; 500 ppm in PDA, 2 days after treatment
  Mycelial Growth (radial): 0.9 cm
[1]; 500 ppm in PDA, 3 days after treatment
  Mycelial Growth (radial): 2.3 cm
[1]; 500 ppm in PDA, 4 days after treatment
  Mycelial Growth (radial): 3.1 cm
[1]; 500 ppm in PDA, 5 days after treatment
  Mycelial Growth (radial): 4.0 cm
[1]; 500 ppm in PDA, 6 days after treatment
  Mycelial Growth (radial): 4.0 cm
[1]; 500 ppm in PDA, 7 days after treatment
  Mycelial Growth (radial): 4.1 cm
[1]; 500 ppm in PDA, 14 days after treatment
  Mycelial Growth (radial): 4.1 cm
[1]; 1,000 ppm in PDA, 1 day after treatment
  Mycelial Growth (radial): 0.0 cm
[1]; 1,000 ppm in PDA, 2 days after treatment
  Mycelial Growth (radial): 0.7 cm
[1]; 1,000 ppm in PDA, 3 days after treatment
  Mycelial Growth (radial): 1.6 cm
[1]; 1,000 ppm in PDA, 4 days after treatment
  Mycelial Growth (radial): 2.2 cm
[1]; 1,000 ppm in PDA, 5 days after treatment
  Mycelial Growth (radial): 3.3 cm
[1]; 1,000 ppm in PDA, 6 days after treatment
  Mycelial Growth (radial): 4.0 cm
[1]; 1,000 ppm in PDA, 7 days after treatment
  Mycelial Growth (radial): 4.1 cm
[1]; 1,000 ppm in PDA, 14 days after treatment
  Mycelial Growth (radial): 4.1 cm
[1]; 5,000 ppm in PDA, 1 day after treatment
  Mycelial Growth (radial): 0.0 cm
[1]; 5,000 ppm in PDA, 2 days after treatment
  Mycelial Growth (radial): 0.0 cm
[1]; 5,000 ppm in PDA, 3 days after treatment
  Mycelial Growth (radial): 0.0 cm
[1]; 5,000 ppm in PDA, 4 days after treatment
  Mycelial Growth (radial): 0.0 cm
[1]; 5,000 ppm in PDA, 5 days after treatment
  Mycelial Growth (radial): 0.0 cm
[1]; 5,000 ppm in PDA, 6 days after treatment
  Mycelial Growth (radial): 0.1 cm
[1]; 5,000 ppm in PDA, 7 days after treatment
  Mycelial Growth (radial): 0.3 cm
[1]; 5,000 ppm in PDA, 14 days after treatment
  Mycelial Growth (radial): 0.0 cm
[1]; 10,000 ppm in PDA, 1 day after treatment
  Mycelial Growth (radial): 0.0 cm
[1]; 10,000 ppm in PDA, 2 days after treatment
  Mycelial Growth (radial): 0.0 cm
[1]; 10,000 ppm in PDA, 3 days after treatment
  Mycelial Growth (radial): 0.0 cm
[1]; 10,000 ppm in PDA, 4 days after treatment
  Mycelial Growth (radial): 0.0 cm
[1]; 10,000 ppm in PDA, 5 days after treatment
  Mycelial Growth (radial): 0.0 cm
[1]; 10,000 ppm in PDA, 6 days after treatment
  Mycelial Growth (radial): 0.0 cm
[1]; 10,000 ppm in PDA, 7 days after treatment
  Mycelial Growth (radial): 0.0 cm
[1]; 10,000 ppm in PDA, 14 days after treatment
  Mycelial Growth (radial): 0.0 cm
[2]; reading 9/7, one month after first spray
  Powdery mildew disease rating on grape leaves, per repetition: 2 and 1
[2]; reading 10/5, about one month after second spray
  Powdery mildew disease rating on grape leaves, per repetition: 3
[2]; spray on infected Pinot Noir leaves, up to second reading
  Control of grape powdery mildew (in words): reduced the spread of the mildew fungus, but did not control it
[3]; reading 8/22
  Powdery mildew disease rating on rose leaves, per repetition: 3 and 2
[3]; reading 9/4
  Powdery mildew disease rating on rose leaves, per repetition: 3 and 2
[3]; spray on infected rose leaves
  Control of rose powdery mildew (in words): less effective in removing the fungus from the infected rose leaves
